Consider 43 molecules from patent US11098063B2, “Diazabicyclic substituted imidazopyrimidines and their use for the treatment of breathing disorders” (Bayer Aktiengesellschaft, priority 2017, dated 2021).

One assay has as its target human TASK-3 (Homo sapiens (Human), UniProt Q9NPC2). Briefly: Inhibition of recombinant TASK-3 in stably transfected CHO cells (voltage-sensitive dye, KCl depolarization). Format: cell-based. The settings on record: depolarization by 40 mM potassium chloride. The protocol: (§1) B-2. Inhibition of Recombinant TASK-1 and TASK-3 In Vitro
(§2) The investigations on the inhibition of the recombinant TASK-1 and TASK-3 channels were conducted using stably transfected CHO cells. The compounds according to the invention were tested in this case by application of 40 mM potassium chloride in the presence of a voltage-sensitive dye according to the method described in detail in the following references [Whiteaker et al., Validation of FLIPR membrane potential dye for high-throughput screening of potassium channel modulators, J. Biomol. Screen. 6 (5), 305-312 (2001); Molecular Devices FLIPR Application Note: Measuring membrane potential using the FLIPR® membrane potential assay kit on Fluorometric Imaging Plate Reader (FLIPR®) systems, http://www.moleculardevices.com/reagents-supplies/assay-kits/ion-channels/flipr-membrane-potential-assay-kits]. The activity of the test substances was determined as their ability to inhibit a depolarization induced in the recombinant cells by 40 mM potassium chloride. The concentration which can block half of this depolarization is referred to as IC50.

Another assay addresses human TASK-1 (Homo sapiens (Human), UniProt O14649). The assay is described as follows: Inhibition of recombinant TASK-1 in stably transfected CHO cells (voltage-sensitive dye, KCl depolarization). It is filed as cell-based. The settings on record: depolarization by 40 mM potassium chloride. The protocol:
as §1, §2

human TASK-1, sequence (O14649 whole entry): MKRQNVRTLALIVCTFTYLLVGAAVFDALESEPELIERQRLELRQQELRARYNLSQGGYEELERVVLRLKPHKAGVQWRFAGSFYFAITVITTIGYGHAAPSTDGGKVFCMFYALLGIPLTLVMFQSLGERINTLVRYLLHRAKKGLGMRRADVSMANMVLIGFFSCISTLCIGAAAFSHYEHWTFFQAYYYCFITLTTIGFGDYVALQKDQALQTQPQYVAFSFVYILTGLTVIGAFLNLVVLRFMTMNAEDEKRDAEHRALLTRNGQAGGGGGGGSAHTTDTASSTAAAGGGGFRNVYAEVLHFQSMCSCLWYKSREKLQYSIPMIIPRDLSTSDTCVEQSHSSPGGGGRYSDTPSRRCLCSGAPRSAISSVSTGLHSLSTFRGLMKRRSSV
human TASK-3, sequence (Q9NPC2 whole entry): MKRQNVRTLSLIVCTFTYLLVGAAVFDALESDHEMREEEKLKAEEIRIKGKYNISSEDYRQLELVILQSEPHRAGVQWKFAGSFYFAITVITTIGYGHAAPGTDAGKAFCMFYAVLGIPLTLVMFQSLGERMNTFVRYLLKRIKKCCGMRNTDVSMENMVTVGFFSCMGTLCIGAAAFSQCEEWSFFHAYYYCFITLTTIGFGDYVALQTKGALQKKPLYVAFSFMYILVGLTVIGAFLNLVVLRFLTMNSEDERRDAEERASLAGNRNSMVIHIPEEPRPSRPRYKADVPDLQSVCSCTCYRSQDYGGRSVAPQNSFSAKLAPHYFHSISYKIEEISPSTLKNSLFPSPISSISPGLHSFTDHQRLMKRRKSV

On to `COc1ccc(Cl)c(C(=O)N2CC3CCC2CN3Cc2c(-c3ccc(Cl)cc3)nc3ncccn23)n1` (centres unmarked) [Example 45], for which the IC50 (as a rule, the point on the concentration scale where inhibition reaches its midpoint) was 120 nM at human TASK-3 and 1800 nM on human TASK-1.

In the case of `O=C(c1ncoc1C1CC1)N1C2COCC1CN(Cc1c(-c3ccc(Cl)cc3)nc3ncccn13)C2` [Example 46], the IC50 on human TASK-3 worked out at 140 nM; at human TASK-1, 7600 nM.

As to `O=C(c1coc(C2CC2)n1)N1C2CCC1CN(Cc1c(-c3ccc(Cl)cc3)nc3ncccn13)C2` [Example 47], the IC50 worked out at 110 nM at human TASK-3 and 2800 nM on human TASK-1.

On to `Cc1ocnc1C(=O)N1C2CCC1CN(Cc1c(-c3ccc(Cl)cc3)nc3ncccn13)C2` [Example 48], for which the IC50 on human TASK-3 amounted to 23 nM; on human TASK-1, 400 nM.

Regarding `CC(C)c1ocnc1C(=O)N1C2CCC1CN(Cc1c(-c3ccc(Cl)cc3)nc3ncccn13)C2` [Example 49], the results for the IC50 at human TASK-3 and at human TASK-1 were 12 nM and 260 nM, respectively.

As to `Cc1nc(C)c(C(=O)N2C3CCC2CN(Cc2c(-c4ccc(Cl)cc4)nc4ncccn24)C3)o1` [Example 50], the IC50 is 430 nM on human TASK-3 and 3300 nM at human TASK-1.

With `Cc1sc(C(=O)N2C3CCC2CN(Cc2c(-c4ccc(Cl)cc4)nc4ncccn24)C3)nc1Br` [Example 52], the figures for the IC50 at human TASK-3 and at human TASK-1 were 52 nM and 1300 nM, respectively.

For `O=C(c1ncoc1C1CC1)N1C2CCC1CN(Cc1c(-c3ccc(Cl)cc3)nc3ncccn13)C2` [Example 53], the results for the IC50 on human TASK-3 and on human TASK-1 were 19 nM and 620 nM, respectively.

On to `CC(C)c1nc(C(=O)N2C3CCC2CN(Cc2c(-c4ccc(Cl)cc4)nc4ncccn24)C3)cs1` [Example 54], for which the results for the IC50 at human TASK-3 and at human TASK-1 were 13 nM and 860 nM, respectively.

As to `O=C(c1cncs1)N1C2CCC1CN(Cc1c(-c3ccc(Cl)cc3)nc3ncccn13)C2` [Example 55], the IC50 came to 170 nM on human TASK-3 and 2900 nM on human TASK-1.

Turning to `Cc1nc(C(=O)N2C3CCC2CN(Cc2c(-c4ccc(Cl)cc4)nc4ncccn24)C3)c(C)o1` [Example 56], the IC50 at human TASK-3 is 54 nM; at human TASK-1, 5600 nM.

Consider `COc1nc(C(F)(F)F)c(C(=O)N2C3CCC2CN(Cc2c(-c4ccc(Cl)cc4)nc4ncccn24)C3)s1` [Example 57], for which the IC50 came to 57 nM at human TASK-3 and 6400 nM on human TASK-1.

On to `O=C(c1csc(C(F)(F)F)n1)N1C2CCC1CN(Cc1c(-c3ccc(Cl)cc3)nc3ncccn13)C2` [Example 58], for which the IC50 stood at 17 nM on human TASK-3 and 1600 nM at human TASK-1.

`Cc1scnc1C(=O)N1C2CCC1CN(Cc1c(-c3ccc(Cl)cc3)nc3ncccn13)C2` [Example 59]: the figures for the IC50 at human TASK-3 and on human TASK-1 were 39 nM and 3000 nM, respectively.

Consider `O=C(c1nc(C(F)(F)F)cs1)N1C2CCC1CN(Cc1c(-c3ccc(Cl)cc3)nc3ncccn13)C2` [Example 60], for which the results for the IC50 on human TASK-3 and on human TASK-1 were 430 nM and 670 nM, respectively.

Turning to `O=C(c1cscn1)N1C2CCC1CN(Cc1c(-c3ccc(Cl)cc3)nc3ncccn13)C2` [Example 61], the IC50 at human TASK-3 turned out to be 640 nM; at human TASK-1, 3000 nM.

Regarding `CNc1cccc(C(=O)N2C3CCC2CN(Cc2c(-c4ccc(C(C)C)cc4)nc4ncccn24)C3)n1` [Example 62], the IC50 is 70 nM on human TASK-3 and 6900 nM at human TASK-1.

With `COc1cccc(C(=O)N2C3CCC2CN(Cc2c(-c4ccc(C(C)C)cc4)nc4ncccn24)C3)n1` [Example 63], the IC50 worked out at 15 nM at human TASK-3 and 1700 nM at human TASK-1.

`CC(C)c1ccc(-c2nc3ncccn3c2CN2CC3CCC(C2)N3C(=O)c2ccccc2F)cc1` [Example 64]: the IC50 is 8.4 nM at human TASK-3 and 1100 nM on human TASK-1.

As to `COc1cccc(C(=O)N2C3COCC2CN(Cc2c(-c4ccc(C(C)C)cc4)nc4ncccn24)C3)n1` [Example 66], the IC50 on human TASK-3 is 20 nM; on human TASK-1 it was 3700 nM.

With `COc1ccc(Cl)c(C(=O)N2C3COCC2CN(Cc2c(-c4ccc(C(C)C)cc4)nc4ncccn24)C3)n1` [Example 67], the values for the IC50 at human TASK-3 and at human TASK-1 were 17 nM and 1200 nM, respectively.

On to `CC(C)c1ccc(-c2nc3ncccn3c2CN2CC3COCC(C2)N3C(=O)c2ccccc2F)cc1` [Example 68], for which the IC50 at human TASK-3 came out at 87 nM; on human TASK-1, 9400 nM.

In the case of `COc1ccc(Cl)c(C(=O)N2CC3CCC2CN3Cc2c(-c3ccc(C(C)C)cc3)nc3ncccn23)n1` (centres unmarked) [Example 69], the IC50 on human TASK-3 was 22 nM; at human TASK-1, 2800 nM.

Take `CC(C)c1ccc(-c2nc3ncccn3c2CN2CC3CCC2CN3C(=O)c2ncoc2C2CC2)cc1` (centres unmarked) [Example 70]: the IC50 came out at 20 nM on human TASK-3 and 1900 nM at human TASK-1.

In the case of `COc1ccc(F)c(C(=O)N2CC3CCC2CN3Cc2c(-c3ccc(C(C)C)cc3)nc3ncccn23)n1` (centres unmarked) [Example 71], the IC50 stood at 110 nM on human TASK-3 and 14000 nM at human TASK-1.

`COc1ccc(F)c(C(=O)N2CC3CCC2CN3Cc2c(-c3ccc(C(C)C)cc3)nc3ncccn23)n1` (centres unmarked) [Example 72]: the IC50 at human TASK-3 is 29 nM; at human TASK-1, 2100 nM.

Take `COc1cccc(C(=O)N2CC3CCC2CN3Cc2c(-c3ccc(C(C)C)cc3)nc3ncccn23)n1` (centres unmarked) [Example 73]: the IC50 on human TASK-3 came out at 81 nM; at human TASK-1, 9100 nM.

Consider `COc1cccc(C(=O)N2CC3CCC2CN3Cc2c(-c3ccc(C(C)C)cc3)nc3ncccn23)n1` (centres unmarked) [Example 74], for which the IC50 was found to be 61 nM at human TASK-3 and 3400 nM on human TASK-1.

In the case of `CC(C)c1ccc(-c2nc3ncccn3c2CN2CC3CCC2CN3C(=O)c2cccc(OC(F)F)n2)cc1` (centres unmarked) [Example 75], the IC50 at human TASK-3 was 51 nM; at human TASK-1 it was 3800 nM.

`CC(C)c1ccc(-c2nc3ncccn3c2CN2CC3CCC2CN3C(=O)c2cccc(OC(F)F)n2)cc1` (centres unmarked) [Example 76]: the IC50 on human TASK-3 was 56 nM; on human TASK-1, 13000 nM.

With `COc1ccc(C)c(C(=O)N2CC3CCC2CN3Cc2c(-c3ccc(C(C)C)cc3)nc3ncccn23)n1` (centres unmarked) [Example 77], the IC50 at human TASK-3 was found to be 4.9 nM; at human TASK-1, 720 nM.

As to `COc1ccc(C)c(C(=O)N2CC3CCC2CN3Cc2c(-c3ccc(C(C)C)cc3)nc3ncccn23)n1` (centres unmarked) [Example 78], the values for the IC50 on human TASK-3 and on human TASK-1 were 24 nM and 3800 nM, respectively.

Consider `COc1ccc(F)c(C(=O)N2CC3CCC2CN3Cc2c(-c3ccc(Br)cc3)nc3ncccn23)n1` (centres unmarked) [Example 81], for which the results for the IC50 at human TASK-3 and at human TASK-1 were 21 nM and 820 nM, respectively.

In the case of `COc1ccc(F)c(C(=O)N2C3CCC2CN(Cc2c(-c4ccc(Br)cc4)nc4ncccn24)C3)n1` [Example 82], the IC50 at human TASK-3 stood at 37 nM; at human TASK-1, 670 nM.

`O=C(c1ccccc1F)N1C2CCC1CN(Cc1c(-c3ccc(Br)cc3)nc3ncccn13)C2` [Example 83]: the IC50 on human TASK-3 was 14 nM; on human TASK-1, 250 nM.

With `O=C(C1CCCC1)N1C2CCC1CN(Cc1c(-c3ccc(Br)cc3)nc3ncccn13)C2` [Example 84], the figures for the IC50 on human TASK-3 and at human TASK-1 were 4.6 nM and 93 nM, respectively.

As for `O=C(Nc1ccc(F)cc1F)N1C2CCC1CN(Cc1c(-c3ccc(Cl)cc3)nc3ncccn13)C2` [Example 85, 3-{[2-(4-Chlorophenyl)imidazo[1,2-a]pyrimidin-3-yl]methyl}-N-(2,4-difluorophenyl)-3,8-diazabicyclo[3.2.1]octane-8-carboxamide], the IC50 was 1000 nM at human TASK-3 and 30000 nM at human TASK-1.

As for `CC(C)NC(=O)N1C2CCC1CN(Cc1c(-c3ccc(Cl)cc3)nc3ncccn13)C2` [Example 86, 3-{[2-(4-chlorophenyl)imidazo[1,2-a]pyrimidin-3-yl]methyl}-N-isopropyl-3,8-diazabicyclo[3.2.1]octane-8-carboxamide], the IC50 was 430 nM at human TASK-3 and 7700 nM on human TASK-1.

In the case of `O=C(Nc1cccc(Cl)c1)N1C2CCC1CN(Cc1c(-c3ccc(Cl)cc3)nc3ncccn13)C2` [Example 89, N-(3-chlorophenyl)-3-{[2-(4-chlorophenyl)imidazo[1,2-a]pyrimidin-3-yl]methyl}-3,8-diazabicyclo[3.2.1]octane-8-carboxamide], the IC50 on human TASK-3 came to 850 nM; at human TASK-1, 30000 nM.

For the molecule `O=C(Nc1c(Cl)cccc1Cl)N1C2CCC1CN(Cc1c(-c3ccc(Cl)cc3)nc3ncccn13)C2` [Example 91, 3-{[2-(4-chlorophenyl)imidazo[1,2-a]pyrimidin-3-yl]methyl}-N-(2,6-dichlorophenyl)-3,8-diazabicyclo[3.2.1]octane-8-carboxamide], the IC50 at human TASK-3 came out at 410 nM; at human TASK-1 it was 20000 nM.

`Cc1cccc(C)c1NC(=O)N1C2CCC1CN(Cc1c(-c3ccc(Cl)cc3)nc3ncccn13)C2` [Example 92, 3-{[2-(4-chlorophenyl)imidazo[1,2-a]pyrimidin-3-yl]methyl}-N-(2,6-dimethylphenyl)-3,8-diazabicyclo[3.2.1]octane-8-carboxamide]: the IC50 was 270 nM at human TASK-3 and 15000 nM at human TASK-1.

Consider `O=C(Nc1ccccc1F)N1C2CCC1CN(Cc1c(-c3ccc(Cl)cc3)nc3ncccn13)C2` [Example 93, 3-{[2-(4-chlorophenyl)imidazo[1,2-a]pyrimidin-3-yl]methyl}-N-(2-fluorophenyl)-3,8-diazabicyclo[3.2.1]octane-8-carboxamide], for which the values for the IC50 on human TASK-3 and on human TASK-1 were 260 nM and 12000 nM, respectively.

For the molecule `O=C(Nc1cccc(Cl)c1Cl)N1C2CCC1CN(Cc1c(-c3ccc(Cl)cc3)nc3ncccn13)C2` [Example 94, 3-{[2-(4-chlorophenyl)imidazo[1,2-a]pyrimidin-3-yl]methyl}-N-(2,3-dichlorophenyl)-3,8-diazabicyclo[3.2.1]octane-8-carboxamide], the IC50 at human TASK-3 worked out at 160 nM; on human TASK-1 it was 30000 nM.
